One experiment concerns the target PKR(G332S) (Homo sapiens, UniProt P30613, G332S). The experiment is described as follows: Luminescence Biochemical Assay (Kinase Glo Plus), PKR G332S mutant. Conditions: with FBP; for activation at 1.54 µM: 1.54 μM compound, read-out: AC50 LUM KGP FBP % Fold@1.54 μM mean; for AC50: read-out: AC50 LUM KGP FBP AC50 μM gmean (column A); for Emax: read-out: AC50 LUM KGP FBP MAX % FOLD mean. (In general: Kinase-Glo measures the ATP left after a reaction by luminescence.)

The next experiment deals with PKR(R510Q) (Homo sapiens, UniProt P30613, R510Q). The experiment is described as follows: Luminescence Biochemical Assay (Kinase Glo Plus), PKR R510Q mutant. To be noted: without FBP; for activation at 1.54 µM: 1.54 μM compound, read-out: AC50 LUM KGP woFBP % Fold@1.54 μM mean; for AC50: read-out: AC50 LUM KGP woFBP AC50 μM gmean; for Emax: read-out: AC50 LUM KGP woFBP MAX % FOLD mean.

The target in the next experiment is PKR(wt) (Homo sapiens, UniProt P30613). The experiment is described as follows: Luminescence Biochemical Assay (Kinase Glo Plus), wild type PKR. To be noted: without FBP; for activation at 1.54 µM: 1.54 μM compound, read-out: AC50 LUM KGP woFBP % Fold@1.54 μM mean; for AC50: read-out: AC50 LUM KGP woFBP AC50 μM gmean; for Emax: read-out: AC50 LUM KGP woFBP MAX % FOLD mean.
PKR(wt), sequence (P30613 whole entry): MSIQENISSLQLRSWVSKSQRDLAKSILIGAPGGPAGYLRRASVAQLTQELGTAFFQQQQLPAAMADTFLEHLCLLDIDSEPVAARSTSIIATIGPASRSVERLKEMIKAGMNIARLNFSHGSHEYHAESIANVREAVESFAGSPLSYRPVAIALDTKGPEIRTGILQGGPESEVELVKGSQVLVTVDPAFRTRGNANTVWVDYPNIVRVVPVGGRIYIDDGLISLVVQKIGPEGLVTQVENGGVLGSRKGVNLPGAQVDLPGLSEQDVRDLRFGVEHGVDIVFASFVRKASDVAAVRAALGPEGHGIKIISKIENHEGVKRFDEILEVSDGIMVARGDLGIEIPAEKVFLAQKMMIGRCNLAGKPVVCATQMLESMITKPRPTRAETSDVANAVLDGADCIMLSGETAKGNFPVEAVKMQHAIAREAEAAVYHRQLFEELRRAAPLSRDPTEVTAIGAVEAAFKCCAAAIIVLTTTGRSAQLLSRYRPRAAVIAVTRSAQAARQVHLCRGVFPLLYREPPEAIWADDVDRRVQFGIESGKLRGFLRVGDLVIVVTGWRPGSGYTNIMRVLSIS

PKR(G332S), sequence (P30613 whole entry G332S): as the sequence (P30613 whole entry) above, with G332S counted along it
PKR(R510Q), sequence (P30613 whole entry R510Q): as the sequence (P30613 whole entry) above, with R510Q counted along it

Take `O=C(NCc1ccccc1F)N1CC2=C(C1)CN(S(=O)(=O)c1ccccn1)C2` [Example 21-42]: at PKR(G332S), the activation at 1.54 µM was 75 to 250%, the AC50 was in the range of 0.1 to 1 µM and the Emax fell in the range of 75 to 250%. For the same compound, at PKR(R510Q), the activation at 1.54 µM lay in the range of 250 to 50000%, the AC50 was in the range of 0.1 to 1 µM and the Emax lay in the range of 250 to 500%. On PKR(wt), the activation at 1.54 µM lay in the range of 250 to 50000%, the AC50 lay in the range of 0.1 to 1 µM and the Emax was 250 to 500%.

Turning to `O=C(Cc1ccc[nH]1)N1CC2=C(C1)CN(S(=O)(=O)c1ccc(OC(F)F)cc1)C2` [Example 18-27, 1-{5-[4-(Difluoromethoxy)benzenesulfonyl]-1H,2H,3H,4H,5H,6H-pyrrolo[3,4-c]pyrrol-2-yl}-2-(1H-pyrrol-2-yl)ethan-1-one], on PKR(G332S), the activation at 1.54 µM was 75 to 250%, the AC50 was in the range of 1 to 40 µM and the Emax fell in the range of 75 to 250%. Also, at PKR(R510Q), the activation at 1.54 µM fell in the range of 75 to 250%, the AC50 was 1 to 40 µM and the Emax lay in the range of 75 to 250%. On PKR(wt), the activation at 1.54 µM was 75 to 250%, the AC50 lay within 1 to 40 µM and the Emax fell in the range of 75 to 250%.

With `O=C([C@H](O)c1ccc(F)cc1)N1CC2=C(C1)CN(S(=O)(=O)c1ccc(C(F)(F)F)nc1)C2` [Example 18-64, (2R)-2-(4-fluorophenyl)-2-hydroxy-1-(5-{[6-(trifluoromethyl)pyridin-3-yl]sulfonyl}-1H,2H,3H,4H,5H,6H-pyrrolo[3,4-c]pyrrol-2-yl)ethan-1-one], the activation at 1.54 µM on PKR(G332S), at PKR(R510Q) and at PKR(wt) was 75 to 250% each time. For the same compound, the half-maximal activity concentration (AC50) on PKR(G332S), on PKR(R510Q) and at PKR(wt) was 1 to 40 µM throughout. Also, the Emax on PKR(G332S), at PKR(R510Q) and at PKR(wt) was 75 to 250% in each case.

With `Cc1nc(CC(=O)N2CC3=C(C2)CN(S(=O)(=O)c2ccccn2)C3)cs1` [Example 18-68, 2-(2-Methyl-1,3-thiazol-4-yl)-1-[5-(pyridine-2-sulfonyl)-1H,2H,3H,4H,5H,6H-pyrrolo[3,4-c]pyrrol-2-yl]ethan-1-one], at PKR(G332S), the activation at 1.54 µM was in the range of 75 to 250%, the AC50 is 0.1 to 1 µM and the Emax lay in the range of 75 to 250%. In addition, at PKR(R510Q), the activation at 1.54 µM was in the range of 75 to 250%, the AC50 was in the range of 1 to 40 µM and the Emax lay in the range of 75 to 250%. Further, at PKR(wt), the activation at 1.54 µM lay within 75 to 250%, the AC50 was 1 to 40 µM and the Emax is 250 to 500%.

For `O=C(Cc1cnccn1)N1CC2=C(C1)CN(S(=O)(=O)c1ccc(OC(F)F)cc1)C2` [Example 18-29, 1-{5-[4-(Difluoromethoxy)benzenesulfonyl]-1H,2H,3H,4H,5H,6H-pyrrolo[3,4-c]pyrrol-2-yl}-2-(pyrazin-2-yl)ethan-1-one], the activation at 1.54 µM at PKR(G332S), on PKR(R510Q) and on PKR(wt) was 75 to 250% throughout. The AC50 on PKR(G332S) was not above 0.1 µM; on PKR(R510Q), 1 to 40 µM; at PKR(wt) it was 1 to 40 µM. The values for the Emax on PKR(G332S), at PKR(R510Q) and at PKR(wt) were 75 to 250%, 250 to 500% and 250 to 500%, respectively.

Consider `O=C(NCc1ccc(F)cc1)N1CC2=C(C1)CN(S(=O)(=O)c1ccc3ncsc3c1)C2` [Example 21-19, 5-(1,3-Benzothiazole-6-sulfonyl)-N-[(4-fluorophenyl)methyl]-1H,2H,3H,4H,5H,6H-pyrrolo[3,4-c]pyrrole-2-carboxamide], for which, on PKR(G332S), the activation at 1.54 µM is 75 to 250%, the AC50 was 0.1 to 1 µM and the Emax lay within 75 to 250%. In addition, at PKR(R510Q), the activation at 1.54 µM is 75 to 250%, the concentration at half-maximal activity (AC50) lay within 0.1 to 1 µM and the Emax lay within 250 to 500%. On PKR(wt), the activation at 1.54 µM lay in the range of 75 to 250%, the AC50 was 0.1 to 1 µM and the Emax fell in the range of 250 to 500%.

As usually defined, the AC50 is the midpoint of the concentration-response curve, whichever way the signal moves.

The values above are taken from US12122778B2, “Activating pyruvate kinase R” (Novo Nordisk Health Care AG, priority 2018, dated 2024).
